Reference: the supplement of paper PMC10307832

Legend:
Assay in all cases: relative viability (nuclei count vs DMSO), 5 days (fraction); higher = more cells survive
Linsitinib + Tozasertib = compound: C[C@]1(O)C[C@@H](c2nc(-c3ccc4ccc(-c5ccccc5)nc4c3)c3c(N)nccn32)C1 [Linsitinib] + Cc1cc(Nc2cc(N3CCN(C)CC3)nc(Sc3ccc(NC(=O)C4CC4)cc3)n2)n[nH]1 [Tozasertib] (partner 0.1 µM)
Method in brief: (§1)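 Nuclei were stained with Hoechst during a one-step fixation (final 0.05% Triton X-100, 1% formaldehyde, 1 ug/ml Hoechst) carried out 5 days after dosing, then counted on 4× images. The cells, lung cancer lines in 1536-well plates, had been dosed by pin tool the day after seeding with one drug alone or a fixed anchor-drug dose plus five library-drug doses (not always all listed) in √10 steps. Relative viability is the nuclei count in treated wells divided by that in vehicle wells, and each value is the median of duplicate plates.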

Linsitinib + Olaparib = compound: C[C@]1(O)C[C@@H](c2nc(-c3ccc4ccc(-c5ccccc5)nc4c3)c3c(N)nccn32)C1 [Linsitinib] + O=C(c1cc(Cc2n[nH]c(=O)c3ccccc23)ccc1F)N1CCN(C(=O)C2CC2)CC1 [Olaparib] (partner 8 µM)
Method in brief: as §1

Ispinesib + Luminespib = compound: Cc1ccc(C(=O)N(CCCN)[C@@H](c2nc3cc(Cl)ccc3c(=O)n2Cc2ccccc2)C(C)C)cc1 [Ispinesib] + CCNC(=O)c1noc(-c2cc(C(C)C)c(O)cc2O)c1-c1ccc(CN2CCOCC2)cc1 [Luminespib] (partner 0.01 µM)
Method in brief: as §1

Ispinesib + Dasatinib = compound: Cc1ccc(C(=O)N(CCCN)[C@@H](c2nc3cc(Cl)ccc3c(=O)n2Cc2ccccc2)C(C)C)cc1 [Ispinesib] + Cc1nc(Nc2ncc(C(=O)Nc3c(C)cccc3Cl)s2)cc(N2CCN(CCO)CC2)n1 [Dasatinib] (partner 0.075 µM)
Method in brief: as §1

## BEN
Linsitinib + Tozasertib; first compound 0.01 µM
  relative viability: 0.537
Linsitinib + Tozasertib; first compound 0.03162 µM
  relative viability: 0.611
Linsitinib + Tozasertib; first compound 0.1 µM
  relative viability: 0.481
Linsitinib + Tozasertib; first compound 0.3162 µM
  relative viability: 0.377
Linsitinib + Tozasertib; first compound 1 µM
  relative viability: 0.486
Linsitinib + Olaparib; first compound 0.01 µM
  relative viability: 1.03
Linsitinib + Olaparib; first compound 0.03162 µM
  relative viability: 0.987
Linsitinib + Olaparib; first compound 0.1 µM
  relative viability: 1.17
Linsitinib + Olaparib; first compound 0.3162 µM
  relative viability: 0.686
Linsitinib + Olaparib; first compound 1 µM
  relative viability: 0.953
Ispinesib + Luminespib; first compound 0.001 µM
  relative viability: 0.617
Ispinesib + Luminespib; first compound 0.003162 µM
  relative viability: 0.576
Ispinesib + Luminespib; first compound 0.01 µM
  relative viability: 0.237
Ispinesib + Luminespib; first compound 0.03162 µM
  relative viability: 0.247
Ispinesib + Luminespib; first compound 0.1 µM
  relative viability: 0.234
Ispinesib + Dasatinib; first compound 0.001 µM
  relative viability: 0.36
Ispinesib + Dasatinib; first compound 0.003162 µM
  relative viability: 0.371
Ispinesib + Dasatinib; first compound 0.01 µM
  relative viability: 0.307
Ispinesib + Dasatinib; first compound 0.03162 µM
  relative viability: 0.248
Ispinesib + Dasatinib; first compound 0.1 µM
  relative viability: 0.141

## NCI-H2347
Linsitinib + Tozasertib; first compound 0.01 µM
  relative viability: 0.557
Linsitinib + Tozasertib; first compound 0.03162 µM
  relative viability: 0.669
Linsitinib + Tozasertib; first compound 0.1 µM
  relative viability: 0.571
Linsitinib + Tozasertib; first compound 1 µM
  relative viability: 0.414
Linsitinib + Olaparib; first compound 0.01 µM
  relative viability: 0.584
Linsitinib + Olaparib; first compound 0.03162 µM
  relative viability: 0.687
Linsitinib + Olaparib; first compound 0.1 µM
  relative viability: 0.598
Linsitinib + Olaparib; first compound 0.3162 µM
  relative viability: 0.608
Linsitinib + Olaparib; first compound 1 µM
  relative viability: 0.596
Ispinesib + Luminespib; first compound 0.001 µM
  relative viability: 0.375
Ispinesib + Luminespib; first compound 0.003162 µM
  relative viability: 0.503
Ispinesib + Luminespib; first compound 0.01 µM
  relative viability: 0.624
Ispinesib + Luminespib; first compound 0.03162 µM
  relative viability: 0.359
Ispinesib + Luminespib; first compound 0.1 µM
  relative viability: 0.469
Ispinesib + Dasatinib; first compound 0.001 µM
  relative viability: 0.285
Ispinesib + Dasatinib; first compound 0.003162 µM
  relative viability: 0.209
Ispinesib + Dasatinib; first compound 0.01 µM
  relative viability: 0.289
Ispinesib + Dasatinib; first compound 0.03162 µM
  relative viability: 0.284
Ispinesib + Dasatinib; first compound 0.1 µM
  relative viability: 0.282

## LCLC-103H
Linsitinib + Tozasertib; first compound 0.01 µM
  relative viability: 0.534
Linsitinib + Tozasertib; first compound 0.03162 µM
  relative viability: 0.496
Linsitinib + Tozasertib; first compound 0.1 µM
  relative viability: 0.497
Linsitinib + Tozasertib; first compound 0.3162 µM
  relative viability: 0.472
Linsitinib + Tozasertib; first compound 1 µM
  relative viability: 0.331
Linsitinib + Olaparib; first compound 0.01 µM
  relative viability: 0.743
Linsitinib + Olaparib; first compound 0.03162 µM
  relative viability: 0.776
Linsitinib + Olaparib; first compound 0.1 µM
  relative viability: 0.771
Linsitinib + Olaparib; first compound 0.3162 µM
  relative viability: 0.689
Linsitinib + Olaparib; first compound 1 µM
  relative viability: 0.758
Ispinesib + Luminespib; first compound 0.001 µM
  relative viability: 0.95
Ispinesib + Luminespib; first compound 0.003162 µM
  relative viability: 1.08
Ispinesib + Luminespib; first compound 0.01 µM
  relative viability: 1.08
Ispinesib + Luminespib; first compound 0.03162 µM
  relative viability: 0.752
Ispinesib + Luminespib; first compound 0.1 µM
  relative viability: 0.785
Ispinesib + Dasatinib; first compound 0.001 µM
  relative viability: 0.553
Ispinesib + Dasatinib; first compound 0.003162 µM
  relative viability: 0.506
Ispinesib + Dasatinib; first compound 0.01 µM
  relative viability: 0.602
Ispinesib + Dasatinib; first compound 0.03162 µM
  relative viability: 0.302
Ispinesib + Dasatinib; first compound 0.1 µM
  relative viability: 0.244

## NCI-H650
Linsitinib + Tozasertib; first compound 0.01 µM
  relative viability: 0.762
Linsitinib + Tozasertib; first compound 0.03162 µM
  relative viability: 0.786
Linsitinib + Tozasertib; first compound 0.1 µM
  relative viability: 0.699
Linsitinib + Tozasertib; first compound 0.3162 µM
  relative viability: 0.502
Linsitinib + Tozasertib; first compound 1 µM
  relative viability: 0.601
Linsitinib + Olaparib; first compound 0.01 µM
  relative viability: 0.381
Linsitinib + Olaparib; first compound 0.03162 µM
  relative viability: 0.537
Linsitinib + Olaparib; first compound 0.1 µM
  relative viability: 0.405
Linsitinib + Olaparib; first compound 1 µM
  relative viability: 0.398
Ispinesib + Luminespib; first compound 0.001 µM
  relative viability: 0.739
Ispinesib + Luminespib; first compound 0.003162 µM
  relative viability: 0.836
Ispinesib + Luminespib; first compound 0.01 µM
  relative viability: 0.808
Ispinesib + Luminespib; first compound 0.03162 µM
  relative viability: 0.621
Ispinesib + Luminespib; first compound 0.1 µM
  relative viability: 0.783
Ispinesib + Dasatinib; first compound 0.001 µM
  relative viability: 0.491
Ispinesib + Dasatinib; first compound 0.003162 µM
  relative viability: 0.473
Ispinesib + Dasatinib; first compound 0.01 µM
  relative viability: 0.448
Ispinesib + Dasatinib; first compound 0.03162 µM
  relative viability: 0.349
Ispinesib + Dasatinib; first compound 0.1 µM
  relative viability: 0.172

## NCI-H1975
Linsitinib + Tozasertib; first compound 0.01 µM
  relative viability: 0.691
Linsitinib + Tozasertib; first compound 0.03162 µM
  relative viability: 0.677
Linsitinib + Tozasertib; first compound 0.1 µM
  relative viability: 0.865
Linsitinib + Tozasertib; first compound 0.3162 µM
  relative viability: 0.665
Linsitinib + Tozasertib; first compound 1 µM
  relative viability: 0.311
Linsitinib + Olaparib; first compound 0.01 µM
  relative viability: 0.775
Linsitinib + Olaparib; first compound 0.03162 µM
  relative viability: 0.678
Linsitinib + Olaparib; first compound 0.1 µM
  relative viability: 0.737
Linsitinib + Olaparib; first compound 0.3162 µM
  relative viability: 0.645
Linsitinib + Olaparib; first compound 1 µM
  relative viability: 0.584
Ispinesib + Luminespib; first compound 0.001 µM
  relative viability: 0.231
Ispinesib + Luminespib; first compound 0.003162 µM
  relative viability: 0.217
Ispinesib + Luminespib; first compound 0.01 µM
  relative viability: 0.21
Ispinesib + Luminespib; first compound 0.03162 µM
  relative viability: 0.351
Ispinesib + Luminespib; first compound 0.1 µM
  relative viability: 0.198
Ispinesib + Dasatinib; first compound 0.001 µM
  relative viability: 0.443
Ispinesib + Dasatinib; first compound 0.003162 µM
  relative viability: 0.43
Ispinesib + Dasatinib; first compound 0.01 µM
  relative viability: 0.425
Ispinesib + Dasatinib; first compound 0.03162 µM
  relative viability: 0.158
Ispinesib + Dasatinib; first compound 0.1 µM
  relative viability: 0.114

## NCI-H2126
Linsitinib + Tozasertib; first compound 0.01 µM
  relative viability: 0.768
Linsitinib + Tozasertib; first compound 0.03162 µM
  relative viability: 0.828
Linsitinib + Tozasertib; first compound 0.1 µM
  relative viability: 0.767
Linsitinib + Tozasertib; first compound 0.3162 µM
  relative viability: 0.727
Linsitinib + Tozasertib; first compound 1 µM
  relative viability: 0.646
Linsitinib + Olaparib; first compound 0.01 µM
  relative viability: 0.962
Linsitinib + Olaparib; first compound 0.03162 µM
  relative viability: 0.957
Linsitinib + Olaparib; first compound 0.1 µM
  relative viability: 0.934
Linsitinib + Olaparib; first compound 0.3162 µM
  relative viability: 0.779
Linsitinib + Olaparib; first compound 1 µM
  relative viability: 0.862
Ispinesib + Luminespib; first compound 0.001 µM
  relative viability: 0.927
Ispinesib + Luminespib; first compound 0.003162 µM
  relative viability: 1.02
Ispinesib + Luminespib; first compound 0.01 µM
  relative viability: 1.03
Ispinesib + Luminespib; first compound 0.03162 µM
  relative viability: 0.844
Ispinesib + Luminespib; first compound 0.1 µM
  relative viability: 0.428
Ispinesib + Dasatinib; first compound 0.001 µM
  relative viability: 0.671
Ispinesib + Dasatinib; first compound 0.003162 µM
  relative viability: 0.658
Ispinesib + Dasatinib; first compound 0.01 µM
  relative viability: 0.768
Ispinesib + Dasatinib; first compound 0.03162 µM
  relative viability: 0.566
Ispinesib + Dasatinib; first compound 0.1 µM
  relative viability: 0.413

## NCI-H2087
Linsitinib + Tozasertib; first compound 0.01 µM
  relative viability: 0.219
Linsitinib + Tozasertib; first compound 0.03162 µM
  relative viability: 0.259
Linsitinib + Tozasertib; first compound 0.1 µM
  relative viability: 0.196
Linsitinib + Tozasertib; first compound 0.3162 µM
  relative viability: 0.141
Linsitinib + Tozasertib; first compound 1 µM
  relative viability: 0.203
Linsitinib + Olaparib; first compound 0.01 µM
  relative viability: 0.572
Linsitinib + Olaparib; first compound 0.03162 µM
  relative viability: 0.639
Linsitinib + Olaparib; first compound 0.1 µM
  relative viability: 0.609
Linsitinib + Olaparib; first compound 0.3162 µM
  relative viability: 0.51
Linsitinib + Olaparib; first compound 1 µM
  relative viability: 0.47
Ispinesib + Luminespib; first compound 0.001 µM
  relative viability: 0.168
Ispinesib + Luminespib; first compound 0.003162 µM
  relative viability: 0.159
Ispinesib + Luminespib; first compound 0.01 µM
  relative viability: 0.189
Ispinesib + Luminespib; first compound 0.03162 µM
  relative viability: 0.14
Ispinesib + Luminespib; first compound 0.1 µM
  relative viability: 0.151
Ispinesib + Dasatinib; first compound 0.001 µM
  relative viability: 0.998
Ispinesib + Dasatinib; first compound 0.003162 µM
  relative viability: 0.841
Ispinesib + Dasatinib; first compound 0.01 µM
  relative viability: 0.963
Ispinesib + Dasatinib; first compound 0.03162 µM
  relative viability: 0.39
Ispinesib + Dasatinib; first compound 0.1 µM
  relative viability: 0.117
